Patent US20230406843A1, “Progranulin Modulators and Methods of Using the Same” (ARKUDA THERAPEUTICS, priority 2020, published 2023)
Structures can show the parent of a compound that is named as a salt.

The compounds below were run on progranulin (assay: Progranulin induction cellular assay (ELISA of secreted mouse PGRN)). Settings: Mus musculus, BV-2, read-out: EC50 μM.
Assay type: cell-based
Summary of the method: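 Secreted mouse PGRN in culture medium is measured by ELISA. Cells tested are BV-2, primary cortical neurons and primary microglia. BV-2 cells are plated a day ahead, allowed 1 h to attach, then incubated 16 h.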
For `CC(=O)N[C@H]1CO[C@@H](C(=O)N2CCc3ccccc3[C@@H]2c2ccc(F)cc2)C[C@@H]1N` [Compound 5512, N-((3R,4S,6R)-4-amino-6-((S)-1-(4-fluorophenyl)-1,2,3,4-tetrahydroisoquinoline-2-carbonyl)tetrahydro-2H-pyran-3-yl)acetamide], the EC50 was 0.005 µM. Work on `COC[C@]1(N)CC[C@H](C(=O)N2CCc3ccccc3[C@@H]2c2ccc(F)cc2)OC1` [Compound 5219, ((2R,5R)-5-amino-5-(methoxymethyl)tetrahydro-2H-pyran-2-yl)((S)-1-(4-fluorophenyl)-3,4-dihydroisoquinolin-2(1H)-yl)methanone] yielded an EC50 of 0.006 µM. `CCNC[C@]1(O)CO[C@H](C(=O)N2CCc3ccccc3[C@@H]2c2ccc(F)cc2)C1` [Compound 5024, ((2S,4S)-4-((ethylamino)methyl)-4-hydroxytetrahydrofuran-2-yl)((S)-1-(4-fluorophenyl)-3,4-dihydroisoquinolin-2(1H)-yl)methanone] showed an EC50 of 0.749 µM.

Same assay, conditions: progranulin induction assay; mouse pMG, primary cortical neurons and BV-2 cell lines named, cell type not given; ELISA-based readout; read-out: EC50
`O=C([C@@H]1OCCNC[C@@H]1F)N1CCc2ccccc2[C@@H]1c1ccc(F)cc1` (single isomer, unassigned) [Compound 5418] showed an EC50 of 0.352 µM. Compound `CO[C@@H]1CO[C@@H](C(=O)N2CCc3ccccc3[C@@H]2c2ccc(F)cc2)C[C@H]1N` [Compound 5247, ((2R,4R,5S)-4-amino-5-methoxytetrahydro-2H-pyran-2-yl)((S)-1-(4-fluorophenyl)-3,4-dihydroisoquinolin-2(1H)-yl)methanone] has an EC50 of 0.095 µM. `N[C@H]1C[C@H](C(=O)N2CCc3ccccc3[C@@H]2c2ccc(F)cc2)OC[C@@H]1CO` [Compound 5537, ((2R,4S,5S)-4-amino-5-(hydroxymethyl)tetrahydro-2H-pyran-2-yl)((S)-1-(4-fluorophenyl)-3,4-dihydroisoquinolin-2(1H)-yl)methanone] was tested, and the EC50 was 0.029 µM. Work on `O=C1CN[C@H]2C[C@H](C(=O)N3CCc4ccccc4[C@@H]3c3ccc(F)cc3)OC[C@@H]2N1` [Compound 5532, (4aR,7R,8aS)-7-((S)-1-(4-fluorophenyl)-1,2,3,4-tetrahydroisoquinoline-2-carbonyl)hexahydro-2H-pyrano[3,4-b]pyrazin-3(4H)-one] yielded an EC50 of 1.68 µM. Work on `NCC1COC(C(=O)N2CCc3ccccc3[C@@H]2c2ccc(F)cc2)C1` (stereo in doubt) [Compound 5009, ((2S,4R)-4-(aminomethyl)tetrahydrofuran-2-yl)((S)-1-(4-fluorophenyl)-3,4-dihydroisoquinolin-2(1H)-yl)methanone] yielded an EC50 of 0.37 µM. With `O=C([C@H]1OCCNC[C@@H]1O)N1CCc2ccccc2[C@@H]1c1ccc(F)cc1` [Compound 5244] the EC50 was 0.091 µM. In the case of `C[C@@H]1CN[C@H]2C[C@H](C(=O)N3CCc4ccccc4[C@@H]3c3ccc(F)cc3)OC[C@@H]2O1` [Compound 5472, ((S)-1-(4-fluorophenyl)-3,4-dihydroisoquinolin-2(1H)-yl)((3R,4aR,7R,8aS)-3-methyloctahydropyrano[3,4-b][1,4]oxazin-7-yl)methanone], the EC50 is reported as 0.013 µM. Work on `N[C@H]1CO[C@H](C(=O)N2CCc3ccccc3[C@@H]2c2ccc(F)cc2)C[C@H]1F` [Compound 5086, ((2S,4R,5S)-5-amino-4-fluorotetrahydro-2H-pyran-2-yl)((S)-1-(4-fluorophenyl)-3,4-dihydroisoquinolin-2(1H)-yl)methanone] yielded an EC50 of 0.194 µM. `[NH-][S@@+2]1([O-])CCN[C@H]2C[C@H](C(=O)N3CCc4ccccc4[C@@H]3c3ccc(F)cc3)OC[C@@H]21` [Compound 5553, ((S)-1-(4-fluorophenyl)-3,4-dihydroisoquinolin-2(1H)-yl)((4R,4aR,7R,8aS)-4-imino-4-oxidooctahydro-2H-^4-pyrano[3,4-b][1,4]thiazin-7-yl)methanone] showed an EC50 of 1.02 µM. Compound `CO[C@H]1CO[C@@H](C(=O)N2CCc3ccccc3[C@@H]2c2ccc(F)cc2)C[C@@H]1NCCO` [Compound 5568] has an EC50 of 0.025 µM. Work on `O=C([C@H]1C[C@@H]2NCCS(=O)(=O)[C@H]2CO1)N1CCc2ccccc2[C@@H]1c1ccc(F)cc1` [Compound 5542, ((4aR,7R,8aS)-4,4-dioxidooctahydropyrano[3,4-b][1,4]thiazin-7-yl)((S)-1-(4-fluorophenyl)-3,4-dihydroisoquinolin-2(1H)-yl)methanone] yielded an EC50 of 4.39 µM. `NC[C@@H]1CC[C@@H](C(=O)N2CCc3ccccc3[C@@H]2c2ccc(F)cc2)O1` [Compound 5003, ((2S,5S)-5-(aminomethyl)tetrahydrofuran-2-yl)((S)-1-(4-fluorophenyl)-3,4-dihydroisoquinolin-2(1H)-yl)methanone] was tested, and the EC50 was 0.509 µM. Compound `N=[S@]1(=O)CCN[C@H]2C[C@H](C(=O)N3CCc4ccccc4[C@@H]3c3ccc(F)cc3)OC[C@@H]21` (single isomer, unassigned) [Compound 5554] has an EC50 of 4.86 µM. `CO[C@H]1CO[C@@H](C(=O)N2CCc3ccccc3[C@@H]2c2ccc(F)cc2)C[C@@H]1NCCC(F)(F)F` [Compound 5570] showed an EC50 of 0.232 µM. In the case of `NC[C@@]1(O)CC[C@@H](C(=O)N2CCc3ccccc3[C@@H]2c2ccc(F)cc2)OC1` (single isomer, unassigned) [Compound 5047], the EC50 is reported as 0.086 µM. Compound `CO[C@@H]1CO[C@@H](C(=O)N2CCc3ccccc3[C@@H]2c2ccc(F)cc2)C[C@@H]1N` [Compound 5062, ((2R,4S,5S)-4-amino-5-methoxytetrahydro-2H-pyran-2-yl)((S)-1-(4-fluorophenyl)-3,4-dihydroisoquinolin-2(1H)-yl)methanone] has an EC50 of 0.049 µM. `CC[S@@+2]([NH-])([O-])[C@H]1CO[C@@H](C(=O)N2CCc3ccccc3[C@@H]2c2ccc(F)cc2)C[C@@H]1N` (single isomer, unassigned) [Compound 5549] was tested, and the EC50 was 0.03 µM. `CN1C=N[C@H]2C[C@H](C(=O)N3CCc4ccccc4[C@@H]3c3ccc(F)cc3)OC[C@H]21` [Compound 5528, ((S)-1-(4-fluorophenyl)-3,4-dihydroisoquinolin-2(1H)-yl)((3aS,6R,7aS)-3-methyl-3,3a,4,6,7,7a-hexahydropyrano[3,4-d]imidazol-6-yl)methanone hydrochloride] was tested, and the EC50 was 0.168 µM. `N[C@@H]1C[C@H](C(=O)N2CCc3ccccc3[C@@H]2c2ccc(F)cc2)OC[C@H]1O` [Compound 5092, ((2R,4R,5S)-4-amino-5-hydroxytetrahydro-2H-pyran-2-yl)((S)-1-(4-fluorophenyl)-3,4-dihydroisoquinolin-2(1H)-yl)methanone] showed an EC50 of 0.184 µM. Work on `CC(=O)N(C)[C@H]1CO[C@@H](C(=O)N2CCc3ccccc3[C@@H]2c2ccc(F)cc2)C[C@@H]1N` [Compound 5516, N-((3R,4S,6R)-4-amino-6-((S)-1-(4-fluorophenyl)-1,2,3,4-tetrahydroisoquinoline-2-carbonyl)tetrahydro-2H-pyran-3-yl)-N-methylacetamide] yielded an EC50 of 0.007 µM. In the case of `COCCN[C@H]1C[C@H](C(=O)N2CCc3ccccc3[C@@H]2c2ccc(F)cc2)OC[C@@H]1OC` [Compound 5569, ((S)-1-(4-fluorophenyl)-3,4-dihydroisoquinolin-2(1H)-yl)((2R,4S,5R)-5-methoxy-4-((2-methoxyethyl)amino)tetrahydro-2H-pyran-2-yl)methanone], the EC50 is reported as over 0.3 µM. Work on `CC[S@](=N)(=O)[C@H]1CO[C@@H](C(=O)N2CCc3ccccc3[C@@H]2c2ccc(F)cc2)C[C@@H]1N` (single isomer, unassigned) [Compound 5550] yielded an EC50 of 0.017 µM. For `CC(C)(C)N1CCN[C@H]2C[C@H](C(=O)N3CCc4ccccc4[C@@H]3c3ccc(F)cc3)OC[C@@H]21` [Compound 5603], the EC50 was 0.008 µM. Compound `C[C@]1(C(=O)N2CCc3ccccc3[C@@H]2c2ccc(F)cc2)C[C@H](N)CCO1` (single isomer, unassigned) [Compound 5236] has an EC50 of 0.393 µM. Work on `NCC1(O)COC(C(=O)N2CCc3ccccc3[C@@H]2c2ccc(F)cc2)C1` (single isomer, unassigned) [Compound 5006] yielded an EC50 of 0.143 µM. `N[C@@H]1C[C@H](C(=O)N2CCc3ccccc3[C@@H]2c2ccc(F)cc2)OC[C@@H]1F` [Compound 5250, ((2R,4R,5R)-4-amino-5-fluorotetrahydro-2H-pyran-2-yl)((S)-1-(4-fluorophenyl)-3,4-dihydroisoquinolin-2(1H)-yl)methanone] showed an EC50 of 0.095 µM. `N[C@H]1CO[C@H](C(=O)N2CCc3ccccc3[C@@H]2c2ccc(F)cc2)OC1` [Compound 5048, (trans-5-amino-1,3-dioxan-2-yl)((S)-1-(4-fluorophenyl)-3,4-dihydroisoquinolin-2(1H)-yl)methanone] was tested, and the EC50 was 0.575 µM. For `CN(C)[C@@H]1CO[C@@H](C(=O)N2CCc3ccccc3[C@@H]2c2ccc(F)cc2)C[C@@H]1O` [Compound 5085, ((2R,4S,5R)-5-(dimethylamino)-4-hydroxytetrahydro-2H-pyran-2-yl)((S)-1-(4-fluorophenyl)-3,4-dihydroisoquinolin-2(1H)-yl)methanone], the EC50 was 0.316 µM. In the case of `N[C@H]1CO[C@H](C(=O)N2CCc3ccccc3[C@@H]2c2ccc(F)cc2)C[C@@H]1O` [Compound 5056, ((2S,4S,5S)-5-amino-4-hydroxytetrahydro-2H-pyran-2-yl)((S)-1-(4-fluorophenyl)-3,4-dihydroisoquinolin-2(1H)-yl)methanone], the EC50 is reported as 0.127 µM. `N[C@@]1(CO)CC[C@H](C(=O)N2CCc3ccccc3[C@@H]2c2ccc(F)cc2)OC1` [Compound 5215, ((2R,5R)-5-amino-5-(hydroxymethyl)tetrahydro-2H-pyran-2-yl)((S)-1-(4-fluorophenyl)-3,4-dihydroisoquinolin-2(1H)-yl)methanone] gave an EC50 of 0.14 µM. For `O=C([C@@H]1C[C@@H](NCCO)CO1)N1CCc2ccccc2[C@@H]1c1ccc(F)cc1` (single isomer, unassigned) [Compound 5066], the EC50 was 0.948 µM. With `N[C@H]1C[C@H](C(=O)N2CCc3ccccc3[C@@H]2c2ccc(F)cc2)OC[C@@H]1NC(=O)C(F)(F)F` [Compound 5514, N-((3R,4S,6R)-4-amino-6-((S)-1-(4-fluorophenyl)-1,2,3,4-tetrahydroisoquinoline-2-carbonyl)tetrahydro-2H-pyran-3-yl)-2,2,2-trifluoroacetamide] the EC50 was 0.024 µM. For `CC[N-][S@+2](C)([O-])[C@H]1CO[C@@H](C(=O)N2CCc3ccccc3[C@@H]2c2ccc(F)cc2)C[C@@H]1N` (single isomer, unassigned) [Compound 5558], the EC50 was 0.312 µM.
